Measured values: PMC12586598, “A novel long-acting C5a-blocking cyclic peptide prevents sepsis-induced organ dysfunction via effective blockade of the inflammatory cascade” (Signal Transduction and Targeted Therapy, 2025)
Where a SMILES comes first, the peptide text is derived from it.

Legend:
[1] = system: human peripheral blood mononuclear cells (PBMCs); test: RNA sequencing of C5a-stimulated PBMCs; assay type: cell-based; details: |log2FoldChange| ≥ 1, P < 0.05
Experimental: Human peripheral mononuclear cells were stimulated with 100 ng/mL of human C5a protein (MCE, China) or a complex of human C5a with Cp1 for 1 h. After RNA extraction, purification and library construction, the Next-Generation Sequencing (NGS) technology was used to perform paire-end (PE) sequencing based on Illumina sequencing platform in Bioprofile Biotechnology Co., Ltd (Shanghai, China). The expression of each gene was calculated and further subjected to differential expression analysis, enrichment analysis and cluster analysis.

CLP model mice = test: Routine blood test: neutrophils and monocytes in CLP model mice; assay type: in vivo, mouse; details: 100 μg/20 g i.v.
Experimental: The cecal ligation and puncture (CLP) model was established in male C57BL/6 mice (9-10 weeks old). Briefly, a midline laparotomy was performed to exteriorize the cecum under general anesthesia. The cecum was ligated at the distal three-quarters using sutures. Subsequently, a single through-and-through puncture was made in the ligated segment using a 22-gaμge needle, followed by small volume of fecal content was gentle extrusion. The cecum was then repositioned within abdominal cavity, and the laparotomy incision was closed in layers. All animals were administered 1 mL of sterile saline for postoperative fluid resuscitation. Sham-operated controls underwent identical surgical procedures without cecal ligation or puncture. In this work, mice received administration via intravenous injection 1 hour after CLP surgery. The animal mortality was determined by the presence of confirmed death. […] Subsequently, mice were sacrificed to collect the main organs for morphological and pathological analysis.

mouse C5a [2] = molecular target: T1, mouse C5a (Mus musculus, UniProt P06684); test: SPR binding affinity assay, immobilized mouse C5a; design: immobilization of mouse C5a (ACROBiosystems, Beijing, China); purchased ACROBiosystems
T1 sequence (P06684 679-755 limits assumed): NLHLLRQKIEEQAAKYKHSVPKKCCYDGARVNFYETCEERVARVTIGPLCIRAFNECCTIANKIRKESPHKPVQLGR
Experimental: (§1) Surface plasmon resonance (SPR) analysis was conducted using Biacore 2000 system (GE Healthcare, Germany) at 37°C in running buffer (20 mM Tris-HCl, pH 7.4, 150 mM NaCl, 5 mM KCl, 1 mM MgCl₂, 1 mM CaCl₂). The CM5 sensor chips (GE Healthcare) were activated with NHS/EDC, followed by immobilization of mouse C5a (ACROBiosystems, Beijing, China), human C5a (ACROBiosystems, Beijing, China), mouse C5 (ACROBiosystems, Beijing, China) or mouse C5a-desArg (MCE, Shanghai, China). The peptide-protein interactions were characterized using a concentration-gradient approach (low to high) with a continuous flow rate of 30 μL/min (150 s injection duration). Between analyte concentrations, the sensor surface was regenerated with 10 mM glycine-HCl (pH 2.0; 5 min treatment). Binding and dissociation constants were obtained by globally fitting the data to a 1:1 Langmuir binding model using a Biacore Insight evaluation software (Cytiva, USA).

mouse C5 = molecular target: T2, mouse C5 (Mus musculus, UniProt P06684); test: SPR binding affinity assay, immobilized mouse C5
T2 construct: purchased ACROBiosystems
Experimental: as §1

normal mice = test: Systemic safety evaluation in normal mice; assay type: in vivo; details: 100 μg/20 g i.v., 24 h
Experimental: The cytotoxic potential of cyclic-peptides was evaluated in HUVECs and RAW 264.7 cells. Cells were incubated with serially diluted Cp1 (1 pg-100 μg/mL) for 24 hours at 37°C in a 5% CO₂ humidified atmosphere, followed by cell viability assessment using CCK-8 kit (Dojindo, Japan). For systemic safety evaluation, whole blood samples were collected for hematological analysis, biochemistry analysis and inflammatory profiling analysis. Following euthanasia, major organs were harvested, fixed and processed for H&E staining.

mouse C5a [3] = molecular target: T1, mouse C5a; test: Plasma C5a/C5 ratio by ELISA after Cp1; assay type: in vivo; details: 100 μg/20 g, normal mice or CLP model mice
Description: We evaluated the in vivo neutralization of Cp1 against C5a by measuring the plasma C5a/C5 ratio in normal mice or CLP model mice.

CLP-induced septic mice [4] = test: Organ function, coagulation and lung histology in CLP mice; assay type: in vivo, mouse; details: 24 h post-CLP surgery
Experimental: (§2) The cecal ligation and puncture (CLP) model was established in male C57BL/6 mice (9-10 weeks old). Briefly, a midline laparotomy was performed to exteriorize the cecum under general anesthesia. The cecum was ligated at the distal three-quarters using sutures. Subsequently, a single through-and-through puncture was made in the ligated segment using a 22-gaμge needle, followed by small volume of fecal content was gentle extrusion. The cecum was then repositioned within abdominal cavity, and the laparotomy incision was closed in layers. All animals were administered 1 mL of sterile saline for postoperative fluid resuscitation. Sham-operated controls underwent identical surgical procedures without cecal ligation or puncture. In this work, mice received administration via intravenous injection 1 hour after CLP surgery. The animal mortality was determined by the presence of confirmed death. […] Blood samples were collected 24 hours after CLP-modeling for hematological analysis (Mindray BC-60R Vet) and biochemical analysis (Mindray BS-240 Vet, China), endothelial injury analysis (Njjcbio, Nanjing) and coagulation analysis (Legene, Beijing). Subsequently, mice were sacrificed to collect the main organs for morphological and pathological analysis.

CLP-induced septic mice [5] = test: Kaplan-Meier survival of CLP model mice; assay type: in vivo, mouse
Experimental: as §2

C5a-C5aR1 = molecular target: T3, C5a-C5aR1 (Homo sapiens, UniProt P01031); test: Validation of Cp1-specific blockade of C5a-C5aR1 by flow cytometry on PMNs; assay type: cell-based; details: resting and TNF-α activated PMNs, Cy5-C5a
T3 construct: 10 ng of Cy5-labeled human C5a (MCE, Shanghai, China); purchased MCE; host or cells: PMNs from Oribiotech Co., Ltd. (endogenous receptor)
T3 sequence (P01031 678-751): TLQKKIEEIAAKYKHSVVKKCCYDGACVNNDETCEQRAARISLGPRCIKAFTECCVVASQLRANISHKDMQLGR
Experimental: To validate the Cp1-specific blockade of C5a-C5aR1. PMNs isolated by flow cytometric sorting from Oribiotech Co., Ltd. (Shanghai, China) were preincubated with C5aR1-antibody (5 μg), C5aR2-antibody (5 μg), Cp1 (10 μg), Cp1 (10 μg)+C5aR1-antibody (5 μg) or Cp1 (10 μg)+C5aR2-antibody (5 μg) at room temperature for 0.5 h, followed by incubation with 10 ng of Cy5-labeled human C5a (MCE, Shanghai, China) at 4 °C for 0.5 h in the dark. The samples were subsequently centrifuged, washed with PBS and detected via flow cytometry. PMNs were stimulated with 10 ng/mL TNF-α for 12 hours to perform competitive binding assays under activated conditions.

T2 sequence (P06684 19-1680): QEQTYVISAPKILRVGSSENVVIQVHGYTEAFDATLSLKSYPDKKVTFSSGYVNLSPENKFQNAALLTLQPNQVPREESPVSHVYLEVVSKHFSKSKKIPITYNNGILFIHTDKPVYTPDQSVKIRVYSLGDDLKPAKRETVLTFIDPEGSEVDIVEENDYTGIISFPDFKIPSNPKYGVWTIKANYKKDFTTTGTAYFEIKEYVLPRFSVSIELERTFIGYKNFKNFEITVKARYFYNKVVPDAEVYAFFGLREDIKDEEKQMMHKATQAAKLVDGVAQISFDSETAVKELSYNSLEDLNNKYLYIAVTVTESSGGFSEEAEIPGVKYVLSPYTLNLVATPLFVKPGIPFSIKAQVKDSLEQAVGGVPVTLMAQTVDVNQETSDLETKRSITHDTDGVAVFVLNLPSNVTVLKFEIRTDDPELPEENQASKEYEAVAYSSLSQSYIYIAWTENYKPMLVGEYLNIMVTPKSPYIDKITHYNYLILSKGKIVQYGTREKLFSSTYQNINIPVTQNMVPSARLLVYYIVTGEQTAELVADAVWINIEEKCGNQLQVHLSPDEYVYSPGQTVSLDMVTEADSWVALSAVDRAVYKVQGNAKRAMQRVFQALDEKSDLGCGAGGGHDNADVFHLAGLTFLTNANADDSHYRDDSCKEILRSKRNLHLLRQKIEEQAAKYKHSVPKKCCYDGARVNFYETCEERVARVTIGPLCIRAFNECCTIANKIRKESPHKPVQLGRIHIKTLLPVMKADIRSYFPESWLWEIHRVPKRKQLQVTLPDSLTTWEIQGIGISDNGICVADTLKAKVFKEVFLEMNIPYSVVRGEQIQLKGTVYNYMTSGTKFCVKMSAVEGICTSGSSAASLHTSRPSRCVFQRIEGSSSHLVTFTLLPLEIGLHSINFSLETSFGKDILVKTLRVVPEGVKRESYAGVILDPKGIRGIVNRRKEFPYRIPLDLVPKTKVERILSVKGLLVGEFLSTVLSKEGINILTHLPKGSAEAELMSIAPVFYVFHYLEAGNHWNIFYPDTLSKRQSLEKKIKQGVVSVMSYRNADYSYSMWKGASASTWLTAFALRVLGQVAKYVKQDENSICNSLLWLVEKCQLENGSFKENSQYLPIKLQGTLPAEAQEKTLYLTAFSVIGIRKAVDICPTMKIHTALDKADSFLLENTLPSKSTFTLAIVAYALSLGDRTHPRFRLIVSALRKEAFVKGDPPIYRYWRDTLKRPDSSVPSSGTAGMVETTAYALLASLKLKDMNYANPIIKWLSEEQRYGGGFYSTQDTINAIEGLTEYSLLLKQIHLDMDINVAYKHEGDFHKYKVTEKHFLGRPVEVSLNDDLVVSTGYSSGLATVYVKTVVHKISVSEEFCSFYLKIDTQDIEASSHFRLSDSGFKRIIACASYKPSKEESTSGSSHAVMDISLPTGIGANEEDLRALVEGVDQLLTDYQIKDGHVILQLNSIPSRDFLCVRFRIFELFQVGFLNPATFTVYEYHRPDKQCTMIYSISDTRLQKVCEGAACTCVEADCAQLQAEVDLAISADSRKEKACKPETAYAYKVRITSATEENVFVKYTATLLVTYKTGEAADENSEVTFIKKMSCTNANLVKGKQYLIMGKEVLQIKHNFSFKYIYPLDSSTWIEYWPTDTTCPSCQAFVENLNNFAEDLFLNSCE

SMILES: CSCC[C@@H]1NC(=O)[C@@H]2CCCN2C(=O)[C@H](CCSC)NC(=O)[C@H](CO)NC(=O)[C@H](Cc2c[nH]cn2)NC(=O)CNC(=O)[C@H](CO)NC(=O)[C@H](Cc2ccccc2)NC(=O)[C@H](CCCNC(=N)N)NC(=O)[C@H](CCC(=O)O)NC(=O)[C@H](Cc2ccccc2)NC(=O)[C@H](C(C)C)NC1=O [Cp1] (cyclo(HSMPMVFERFSG))
- DEGs downregulated after Cp1 preincubation [1]: 2235
- increase of absolute monocyte count (delayed peak) vs sham group (CLP model mice; 12 h): 69%
- reduction in absolute neutrophil count vs CLP group (CLP model mice; 12 h): 63%
- reduction in absolute monocyte count vs the 4-h peak value in the CLP group (CLP model mice; peak at 12 h): 38%
- kon (mouse C5a [2]; pH 7.4, read-out: Ka vs mC5a (SPR)): 63800 M⁻¹ s⁻¹
- koff (mouse C5a [2]; read-out: Kd (dissociation rate) vs mC5a (SPR)): 0.359 s⁻¹
- kon (mouse C5; pH 7.4, read-out: Ka vs mC5 (SPR)): 105000 M⁻¹ s⁻¹
- koff (mouse C5; read-out: Kd (dissociation rate) vs mC5 (SPR)): 0.0745 s⁻¹
- hepatorenal toxicity and tissue injury (blood biochemistry, histopathology) (normal mice): no hepatorenal toxicity or tissue injury
- plasma C5a/C5 ratio (mouse C5a [3]): decreased ratio of C5a/C5
- LDH and LAC levels (CLP-induced septic mice [4]; 100 μg/20 g): marked reduction
- coagulation function parameters (PT, APTT, TT, Fbg) (CLP-induced septic mice [4]; 100 μg/20 g): attenuated the sepsis-induced changes in the clotting and fibrinolytic systems
- serum ALT and AST levels (liver function) (CLP-induced septic mice [4]; 100 μg/20 g): effectively mitigated the increase
- serum UREA and CREA levels (kidney injury) (CLP-induced septic mice [4]; 100 μg/20 g, vs untreated CLP mice): significantly lower
- lung injury, H&E pathological sections (CLP-induced septic mice [4]): significantly ameliorated sepsis-induced pulmonary vascular leakage
- improvement in the median survival time vs untreated CLP group (CLP-induced septic mice [5]; mouse, in vivo): 300%
- 7-day survival rate (CLP-induced septic mice [5]; single administration 100 μg/20 g, n = 10): 60%
- specificity of blocking the C5a-C5aR1 axis (C5a-C5aR1): selective blockade of the C5a‒C5aR1 interaction
